Source: patent US4988686A, “Cephem compounds and anti-bacterial agent” (Meiji Seika Kabushiki Kaisha, priority 1988, dated 1991)
Converted amounts (≈) assume the structure as drawn. Like-named read-outs stand apart in the source and are kept apart here.

Key:
Test in all cases: agar-dilution method, minimum inhibitory concentration
Format in all cases: cell-based
[1] = test system: Bacillus subtilis ATCC 6633
Description: (§1) In order to illustrate the utility of the objective compound (I), anti-bacterial activities measured by the agar-dilution method for some of these compounds (I) are shown in table 1.

[2] = test system: Pseudomonas aeruginosa E-2
Description: as §1

Escherichia coli No. 29 = test system: Escherichia coli No. 29
Description: as §1

[3] = test system: Serratia marcescens No. 1
Description: as §1

[4] = test system: Cytrobacter freundii GN346; details: read-out: Minimum Inhibitory Concentration
Description: as §1

Escherichia coli 255 = test system: Escherichia coli 255
Description: as §1

[5] = test system: Pseudomonas aeruginosa IMA-1007
Description: as §1

Proteus vulgaris 76 = test system: Proteus vulgaris 76
Description: as §1

[6] = test system: Enterobacter cloacae GN7471
Description: as §1

[7] = test system: Pseudomonas aeruginosa M-0148
Description: as §1

[8] = test system: Klebsiella pneumoniae GN69
Description: as §1

[9] = test system: Pseudomonas cepacia M-0527; details: Burkholderia cepacia, M0527
Description: as §1

[10] = test system: Staphylococcus aureus 209PJC-1
Description: as §1

[11] = ATCC6633, Bacillus subtilis ATCC 6633, agar-dilution method, read-out: Minimum Inhibitory Concentration
[12] = E2, Pseudomonas aeruginosa E-2, agar-dilution method, read-out: Minimum Inhibitory Concentration
[13] = Serratia marcescens No. 1, agar-dilution method, read-out: Minimum Inhibitory Concentration
[14] = Cytrobacter freundii GN346, agar-dilution method
[15] = IMA1007, Pseudomonas aeruginosa IMA-1007, agar-dilution method, read-out: Minimum Inhibitory Concentration
[16] = Proteus vulgaris 76, agar-dilution method, read-out: Minimum Inhibitory Concentration
[17] = Enterobacter cloacae GN7471, agar-dilution method, read-out: Minimum Inhibitory Concentration
[18] = M0148, Pseudomonas aeruginosa M-0148, agar-dilution method, read-out: Minimum Inhibitory Concentration
[19] = Klebsiella pneumoniae GN69, agar-dilution method, read-out: Minimum Inhibitory Concentration
[20] = 209PJC1, Staphylococcus aureus 209PJC-1, agar-dilution method, read-out: Minimum Inhibitory Concentration

Compound | MIC (Escherichia coli No. 29) | MIC (Escherichia coli 255) | MIC [9] | MIC [1, 11] | MIC [2, 12] | MIC [3, 13] | MIC [4, 14] | MIC [5, 15] | MIC (Proteus vulgaris 76; [16]) | MIC [6, 17] | MIC [7, 18] | MIC [8, 19] | MIC [10, 20] | other results
CC(C)(O/N=C(\C(=O)N[C@@H]1C(=O)N2C(C(=O)[O-])=C(C[n+]3ccccc3)CS[C@H]12)c1csc(N)n1)C(=O)O [Ceftazidime, reference compound] | 0.2 µg/mL (≈ 0.366 µM) | 25 µg/mL (≈ 45.7 µM) | 0.39 µg/mL (≈ 0.714 µM) |  |  |  |  |  |  |  |  |  |  | MIC ([1]; Bacillus subtilis, ATCC6633, read-out: Minimum Inhibitory Concentration): 3.13 µg/mL (≈ 5.73 µM); MIC ([2]; Pseudomonas aeruginosa, E2, read-out: Minimum Inhibitory Concentration): 0.39 µg/mL (≈ 0.714 µM); MIC ([3]; Serratia marcescens, NO.1, read-out: Minimum Inhibitory Concentration): ≤ 0.025 µg/mL; MIC [4]: 25 µg/mL (≈ 45.7 µM); MIC ([5]; Pseudomonas aeruginosa, IMA1007, read-out: Minimum Inhibitory Concentration): 0.78 µg/mL (≈ 1.43 µM); MIC (Proteus vulgaris 76; Proteus vulgaris, 76, read-out: Minimum Inhibitory Concentration): 0.05 µg/mL (≈ 0.0915 µM); MIC ([6]; Enterobacter cloacae, GN7471, read-out: Minimum Inhibitory Concentration): 3.13 µg/mL (≈ 5.73 µM); MIC ([7]; Pseudomonas aeruginosa, M0148, read-out: Minimum Inhibitory Concentration): 1.56 µg/mL (≈ 2.85 µM); MIC ([8]; Klebsiella pneumoniae, GN69, read-out: Minimum Inhibitory Concentration): 0.1 µg/mL (≈ 0.183 µM); MIC ([10]; Staphylococcus aureus, 209PJC1, read-out: Minimum Inhibitory Concentration): 3.13 µg/mL (≈ 5.73 µM)
Cn1cc(O)c(=O)cc1/C=C/C1=C(C(=O)O)N2C(=O)[C@@H](NC(=O)/C(=N\OC(C)(C)C(=O)O)c3csc(N)n3)[C@H]2SC1 [Example 12, (6R,7R)-7-[(Z)-2-(2-aminothiazol-4-y1)-2-(1-methyl-1carboxy)ethoxyiminoacetamido]-3-[2-(5-hydroxy-1-methyl-4-pyridon-2-yl)vinyl]-ceph-3-em-4-carboxylic acid, trans-isomer] | 0.1 µg/mL (≈ 0.165 µM) | 0.05 µg/mL (≈ 0.0827 µM) | ≤ 0.025 µg/mL | 12.5 µg/mL (≈ 20.7 µM) | 0.05 µg/mL (≈ 0.0827 µM) | 0.1 µg/mL (≈ 0.165 µM) | 3.13 µg/mL (≈ 5.18 µM) | ≤ 0.025 µg/mL | ≤ 0.025 µg/mL | 0.2 µg/mL (≈ 0.331 µM) | 0.2 µg/mL (≈ 0.331 µM) | 0.05 µg/mL (≈ 0.0827 µM) | 100 µg/mL (≈ 165 µM) | 
CC(C)(O/N=C(\C(=O)N[C@@H]1C(=O)N2C(C(=O)O)=C(/C=C/c3cc(=O)c(O)cn3Cc3ccncc3)CS[C@H]12)c1csc(N)n1)C(=O)O [Example 21, (6R,7R)-7-[(Z)-2-aminothiazol-4-y1)-2-(1-methyl-1-carboxy)ethoxyiminoacetamido]-3-[2-(5-hydroxy-1-(4-pyridyl)methyl-4-pyridon-2-y1)vinyl]-ceph-3-em-4carboxylic acid, trans-isomer] | 0.1 µg/mL (≈ 0.147 µM) | 0.1 µg/mL (≈ 0.147 µM) | ≤ 0.025 µg/mL | 12.5 µg/mL (≈ 18.3 µM) | 0.05 µg/mL (≈ 0.0733 µM) | 0.1 µg/mL (≈ 0.147 µM) | 6.25 µg/mL (≈ 9.17 µM) | ≤ 0.025 µg/mL | 0.05 µg/mL (≈ 0.0733 µM) | 1.56 µg/mL (≈ 2.29 µM) | 0.2 µg/mL (≈ 0.293 µM) | 0.1 µg/mL (≈ 0.147 µM) | 100 µg/mL (≈ 147 µM) | 

Second part, led by results:

MIC (Escherichia coli No. 29) | MIC (Escherichia coli 255) | MIC [9] | MIC [1, 11] | MIC [2, 12] | MIC [3, 13] | MIC [4, 14] | MIC [5, 15] | MIC (Proteus vulgaris 76; [16]) | MIC [6, 17] | MIC [7, 18] | MIC [8, 19] | MIC [10, 20] | Compound | other results
0.05 µg/mL (≈ 0.0939 µM) | 0.1 µg/mL (≈ 0.188 µM) | ≤ 0.025 µg/mL | 0.78 µg/mL (≈ 1.46 µM) | 1.56 µg/mL (≈ 2.93 µM) | ≤ 0.025 µg/mL | 1.56 µg/mL (≈ 2.93 µM) | 1.56 µg/mL (≈ 2.93 µM) | ≤ 0.025 µg/mL | 0.1 µg/mL (≈ 0.188 µM) | 12.5 µg/mL (≈ 23.5 µM) | 0.05 µg/mL (≈ 0.0939 µM) | 6.25 µg/mL (≈ 11.7 µM) | CO/N=C(\C(=O)N[C@@H]1C(=O)N2C(C(=O)O)=C(/C=C/c3cc(=O)c(O)cn3C)CS[C@H]12)c1csc(N)n1 [Example 7, (6R ,7R)-7 - [(Z )-2-(2-aminothiazol-4-yl)-2-methoxyiminoacetamido]-3-[2-(5-hydroxy-1-methyl-4-pyridon-2-yl)vinyl]-ceph-3-em-4-carboxylic acid, trans-isomer] | 
≤ 0.025 µg/mL | ≤ 0.025 µg/mL | ≤ 0.025 µg/mL | 6.25 µg/mL (≈ 11.7 µM) | 0.1 µg/mL (≈ 0.187 µM) | ≤ 0.025 µg/mL | 0.1 µg/mL (≈ 0.187 µM) | 0.1 µg/mL (≈ 0.187 µM) | ≤ 0.025 µg/mL | 0.05 µg/mL (≈ 0.0935 µM) | 0.2 µg/mL (≈ 0.374 µM) | 0.05 µg/mL (≈ 0.0935 µM) | 25 µg/mL (≈ 46.8 µM) | CO/N=C(\C(=O)N[C@@H]1C(=O)N2C(C(=O)O)=C(/C=C/c3cc(=O)c(O)cn3O)CS[C@H]12)c1csc(N)n1 [Example 2, (6R, 7R)-7-[(Z)-2-(2-aminothiazol-4-yl)-2-methoxyiminoacetamido]-3-[2-(1,5-dihydroxy-4-pyridon-2-yl)vinyl]-ceph-3-em-4-carboxylic] | 
0.2 µg/mL (≈ 0.365 µM) | 0.2 µg/mL (≈ 0.365 µM) | 12.5 µg/mL (≈ 22.8 µM) | 0.78 µg/mL (≈ 1.42 µM) | 0.78 µg/mL (≈ 1.42 µM) | 0.2 µg/mL (≈ 0.365 µM) | 25 µg/mL (≈ 45.6 µM) | 0.78 µg/mL (≈ 1.42 µM) | 0.1 µg/mL (≈ 0.182 µM) | 1.56 µg/mL (≈ 2.84 µM) | 12.5 µg/mL (≈ 22.8 µM) | 0.2 µg/mL (≈ 0.365 µM) | 12.5 µg/mL (≈ 22.8 µM) | CO/N=C(\C(=O)N[C@@H]1C(=O)N2C(C(=O)O)=C(/C=C\c3cc(=O)c(O)cn3OC)CS[C@H]12)c1csc(N)n1 [Example 10] | 
0.1 µg/mL (≈ 0.165 µM) | ≤ 0.025 µg/mL | ≤ 0.025 µg/mL | 100 µg/mL (≈ 165 µM) | ≤ 0.025 µg/mL | 0.05 µg/mL (≈ 0.0824 µM) | 12.5 µg/mL (≈ 20.6 µM) | ≤ 0.025 µg/mL | ≤ 0.025 µg/mL | 0.78 µg/mL (≈ 1.29 µM) | ≤ 0.025 µg/mL | ≤ 0.025 µg/mL | > 100 µg/mL | CC(C)(O/N=C(\C(=O)N[C@@H]1C(=O)N2C(C(=O)O)=C(/C=C/c3cc(=O)c(O)cn3O)CS[C@H]12)c1csc(N)n1)C(=O)O [Example 5, (6R,7R)-7-[(Z)-2-(2-aminothiazol-4-yl)-2-(1-methyl-1carboxy)ethoxyiminoacetamido]-3-[2-(1,5-dihydroxy-4-pyridon-2-yl)vinyl]-ceph-3-em-4-carboxylic acid, trans-isomer] | 
